US20210361575A1, “LIPID PRODRUGS FOR USE IN DRUG DELIVERY” (NEW MEXICO TECH UNIVERSITY RESEARCH PARK CORPORATION, priority 2018, published 2021)
Where two headings read alike, the source gives them in different places.

Key:
HeLa cells [1] = assay: MTT cytotoxicity of prodrug-loaded liposomes and parent compounds, HeLa; format: cell-based, Human; conditions: 48 hours, free parent compounds or prodrug-incorporated liposomes (20 mol %), read-out: cell viability (MTT), potency
MCF-7 cells = assay: MTT cytotoxicity of prodrug-loaded liposomes and parent compounds, MCF-7; format: cell-based, Human; conditions: MCF7, 48 hours, free parent compounds or prodrug-incorporated liposomes (20 mol %), read-out: cell viability (MTT), potency
MCF10A cells = assay: MTT cytotoxicity of prodrug-loaded liposomes and parent compounds, MCF10A; format: cell-based; conditions: 48 hours, free parent compounds or prodrug-incorporated liposomes (20 mol %), read-out: cell viability (MTT), potency
[2] = Differential scanning calorimetry of loaded liposomes; format: physicochemical; conditions: increasing concentration, prodrugs 0 to 37 mol %, parents 0 to 31 mol %; compared to empty liposomes; not extruded
Description: Prodrug-loaded liposome (PLL) samples were prepared using 20 mg of lipid per 1 mL of […] for each compound with increasing prodrug concentrations without extrusion. Deionized water was used as the calibration standard. 10 μL from each liposome suspension was transferred and sealed in an aluminum DSC pan. DSC measurements were taken at room temperature, and the sample was then heated from 15° C. to 55° C. at 5° C./min.
DSC is a thermal analytical technique useful for designing lipid drug delivery systems, like liposomes, by determining the compatibility of mixed molecules and compositions with the liposome bilayer. The thermotropic behavior of the liposomes at varying prodrug concentrations is measured to determine whether insertion of the molecules modifies the phase transition temperature. The pre-phase transition was masked by PEG-2000. […] As the concentration was increased, the phase transition returned to the phase transition of empty liposomes. […] All liposome suspensions used for DSC analysis were prepared in deionized water instead of sodium buffer to prevent undesired interactions. The samples were not extruded.

[3] = 2T-T incorporation in liposomes (UV-vis, pre- and post-extrusion); format: physicochemical; conditions: 2T-T liposomes; for Actual Drug Incorporation - Post: post-extrusion; for Actual Drug Incorporation - Pre: pre-extrusion
Description: 2T-T liposomes were produced with increasing concentrations of 2T-T, and passed through an extruder to remove any unincorporated 2T-T from the liposome solution. Liposome solutions were analyzed both pre- and post-extrusion using UV-vis spectroscopy with a scanning range of 200 nm-500 nm, 2 nm bandwidth, […], 0.5 nm data interval, and 100 nm/min scan speed. […] Incorporation limits were analyzed up to 70 mol % (147 uM).

[4] = Liposomal particle size distribution and stability (DLS); format: physicochemical; set-up: liposome diameter (DLS), Pre / liposome diameter (DLS), Post: unit not given beside the values; conditions: for PDI, Post / liposome diameter (DLS), Post: post-extrusion; for PDI, Pre / liposome diameter (DLS), Pre: pre-extrusion
Source text: Liposomal size distribution was characterized via dynamic light scattering (DLS). Measurements were taken with disposable polystyrene sizing cuvettes containing the liposome suspensions. Reported DLS measurements are averages of 3 individually prepared liposome samples.
The size distribution of the parent compounds and prodrug loaded liposomes were monitored over time using dynamic light scattering (DLS).
The size distribution of 2T-T liposomes were characterized via DLS measurement both pre- and post-extrusion. The standard deviations of liposome diameter were lower post extrusion. […] The size distributions of 2T-T liposomes at loaded with various concentrations of 2T-T can be seen in TABLE 2, and FIGS. 10-11. […]

HeLa cells [5] = assay: MTT cytotoxicity of 2T-T and 2T-C prodrug-loaded liposomes; format: cell-based; conditions: Homo sapiens
Description: To assess the cytotoxicity of 2T-T prodrug-loaded liposomes, HeLa cells were exposed to different concentrations of topotecan or 2T-T loaded liposomes for 72 hours. After the 72 hour incubation period, cell viability was assessed via an MTT assay.
To assess the cytotoxicity of 2T-C prodrug-loaded liposomes, HeLa cells were exposed to different concentrations of cytarabine or 2T-C(NH2 attachment) loaded liposomes for 48 hours. After the 48 hour incubation period, cell viability was assessed via a MTT assay.

[6] = 2T-P and 2T-N incorporation efficiency in liposomes (UV-Vis); format: physicochemical; conditions: parent compound in liposomes
Description: Parent compound and prodrug concentrations in liposomes were determined using UV-Vis spectrophotometry; (2T-P: 292 nm; 2T-N: 285 nm). PLL were prepared at varying concentrations between 0 mol % to 50 mol %. The lipid amounts remained equivalent for samples under 50 mol %. Each sample was extruded through a 200 nm pore membrane for a total of 11 passes. Prior and post extrusion liposomes were ruptured by dissolution in DMSO (liposome suspension/DMSO, 1:9, v/v). Samples were analyzed in a quartz cuvette. The following parameters were used: scan speed: 120 nm/min; bandwidth: 2 nm; integration time: 0.15 sec; data interval: 0.30 nm; start wavelength: 500 nm; end wavelength: 190 nm.
N and P (SCHEME 1) are hydrophobic compounds that have been altered to contain an amphiphilic tail (2T-P and 2T-N), altering their incorporation within liposomes, which can be characterized using UV-Vis. This technique measures the decreasing transmittance through a sample surface. The absorption of the liposomes at varying concentrations (after removal of unincorporated material) can be used to calculate how much of a drug has been incorporated into liposomes.

Q: What does the source list for `CCCCCCCCCCCCCCCC(=O)OCC(COP(=O)([O-])OCCNC(=O)CCCC(=O)O[C@@H]1c2cc3c(cc2[C@H](c2cc(OC)c(OC)c(OC)c2)[C@@H]2C(=O)OC[C@H]21)OCO3)OC(=O)CCCCCCCCCCCCCCC.[Na+]` (stereo partly drawn) [2T-P, Sodium 2,3-bis (palmitoyloxy) propyl (2-(5-oxo-5-(((5S,5aS,8aS,9S)-8-oxo-9-(3,4,5-trimethoxyphenyl)-5,5a,6,8,8a,9-hexahydrofuro[3′,4′:6,7]naphtha[2,3-d][1,3]dioxol-5-yl)oxy)pentanamido)ethyl)phosphate]?
A: IC50 (HeLa cells [1]): 1370 ± 44 nM; IC50 (MCF-7 cells): 2560 ± 126 nM; IC50 (MCF10A cells): 1540 ± 130 nM; phase transition temperature behaviour (DSC thermograms) [2]: shallow decreasing phase transition temperatures

Q: Which “Actual Drug Incorporation - Post” value ([3]; predicted 10 mol % (28.2 uM)) does the source give for `CCCCCCCCCCCCCCCC(=O)OCC(COP(=O)([O-])OCCNC(=O)CCCC(=O)Oc1ccc2nc3c(cc2c1CN(C)C)Cn1c-3cc2c(c1=O)COC(=O)[C@@]2(O)CC)OC(=O)CCCCCCCCCCCCCCC.[Na+]` (some centres unmarked) [2T-T] here?
A: 22.1 ± 7.9 µM

Q: And the “Actual Drug Incorporation - Pre” value ([3]; predicted 10 mol % (28.2 uM))?
A: 25.3 ± 6.6 µM

Q: What about the “Actual Drug Incorporation - Post” value ([3]; predicted 20 mol % (53.4 uM)) of the same compound?
A: 42.8 ± 4.8 µM

Q: And the “Actual Drug Incorporation - Pre” value ([3]; predicted 20 mol % (53.4 uM))?
A: 46.8 ± 4.8 µM

Q: And the “Actual Drug Incorporation - Post” value ([3]; predicted 30 mol % (76.0 uM))?
A: 66.2 ± 4.9 µM

Q: What about the “Actual Drug Incorporation - Pre” value ([3]; predicted 30 mol % (76.0 uM)) of the same compound?
A: 71.5 ± 5.1 µM

Q: What about the “Actual Drug Incorporation - Post” value ([3]; predicted 40 mol % (96.5 uM)) of the same compound?
A: 77.9 ± 12.3 µM

Q: And the “Actual Drug Incorporation - Pre” value ([3]; predicted 40 mol % (96.5 uM))?
A: 82.6 ± 13.1 µM

Q: What about the “Actual Drug Incorporation - Post” value ([3]; predicted 50* mol % (115.1 uM)) of the same compound?
A: 116.2 µM

Q: And the “Actual Drug Incorporation - Pre” value ([3]; predicted 50* mol % (115.1 uM))?
A: 113.4 µM

Q: What about the “Actual Drug Incorporation - Post” value ([3]; predicted 60* mol % (132.0 uM)) of the same compound?
A: 126.2 µM

Q: And the “Actual Drug Incorporation - Pre” value ([3]; predicted 60* mol % (132.0 uM))?
A: 125.4 µM

Q: And the “Actual Drug Incorporation - Post” value ([3]; predicted 70* mol % (147.6 uM))?
A: 133.7 µM

Q: What about the “Actual Drug Incorporation - Pre” value ([3]; predicted 70* mol % (147.6 uM)) of the same compound?
A: 133.0 µM

Q: What about the “PDI, Post” value ([4]; 2T-T 10 mol %) of the same compound?
A: 0.3 ± 0

Q: What about the “liposome diameter (DLS), Post” value ([4]; 2T-T 10 mol %) of the same compound?
A: 130 ± 7

Q: And the “PDI, Pre” value ([4]; 2T-T 10 mol %)?
A: 0.3 ± 0

Q: What about the “liposome diameter (DLS), Pre” value ([4]; 2T-T 10 mol %) of the same compound?
A: 102 ± 19

Q: And the “PDI, Post” value ([4]; 2T-T 20 mol %)?
A: 0.3 ± 0

Q: And the “liposome diameter (DLS), Post” value ([4]; 2T-T 20 mol %)?
A: 129 ± 9

Q: And the “PDI, Pre” value ([4]; 2T-T 20 mol %)?
A: 0.3 ± 0.1

Q: And the “liposome diameter (DLS), Pre” value ([4]; 2T-T 20 mol %)?
A: 121 ± 16

Q: What about the “PDI, Post” value ([4]; 2T-T 30 mol %) of the same compound?
A: 0.3 ± 0

Q: What about the “liposome diameter (DLS), Post” value ([4]; 2T-T 30 mol %) of the same compound?
A: 118 ± 25

Q: And the “PDI, Pre” value ([4]; 2T-T 30 mol %)?
A: 0.3 ± 0

Q: What about the “liposome diameter (DLS), Pre” value ([4]; 2T-T 30 mol %) of the same compound?
A: 98 ± 28

Q: And the “PDI, Post” value ([4]; 2T-T 40 mol %)?
A: 0.3 ± 0

Q: And the “liposome diameter (DLS), Post” value ([4]; 2T-T 40 mol %)?
A: 123 ± 10

Q: What about the “PDI, Pre” value ([4]; 2T-T 40 mol %) of the same compound?
A: 0.3 ± 0

Q: What about the “liposome diameter (DLS), Pre” value ([4]; 2T-T 40 mol %) of the same compound?
A: 114 ± 24

Q: What about the “PDI, Post” value ([4]; 2T-T 50* mol %) of the same compound?
A: 0.3

Q: What about the “liposome diameter (DLS), Post” value ([4]; 2T-T 50* mol %) of the same compound?
A: 122.4

Q: And the “PDI, Pre” value ([4]; 2T-T 50* mol %)?
A: 0.3

Q: And the “liposome diameter (DLS), Pre” value ([4]; 2T-T 50* mol %)?
A: 122.4

Q: And the “PDI, Post” value ([4]; 2T-T 60* mol %)?
A: 0.3

Q: And the “liposome diameter (DLS), Post” value ([4]; 2T-T 60* mol %)?
A: 88.76

Q: And the “PDI, Pre” value ([4]; 2T-T 60* mol %)?
A: 0.5

Q: What about the “liposome diameter (DLS), Pre” value ([4]; 2T-T 60* mol %) of the same compound?
A: 182.9

Q: And the “PDI, Post” value ([4]; 2T-T 70* mol %)?
A: 0.3

Q: And the “liposome diameter (DLS), Post” value ([4]; 2T-T 70* mol %)?
A: 75.43

Q: What about the “PDI, Pre” value ([4]; 2T-T 70* mol %) of the same compound?
A: 0.4

Q: What about the “liposome diameter (DLS), Pre” value ([4]; 2T-T 70* mol %) of the same compound?
A: 172.1

Q: For `CC[C@@]1(O)C(=O)OCc2c1cc1n(c2=O)Cc2cc3c(CN(C)C)c(O)ccc3nc2-1` [topotecan], which IC50 (HeLa cells [5]; 72 hours) is on record?
A: 51 ± 1 nM

Q: With `Nc1ccn([C@@H]2O[C@H](CO)[C@@H](O)[C@@H]2O)c(=O)n1` [cytarabine] as the compound, how does the IC50 (HeLa cells [5]; 48 hours) read?
A: 4450 ± 6290 nM

Q: With `COc1cc([C@@H]2c3cc4c(cc3[C@H](O)[C@H]3COC(=O)[C@H]23)OCO4)cc(OC)c1OC` [P, podophyllotoxin] as the compound, how does the IC50 (HeLa cells [1]; Homo sapiens) read?
A: 9 ± 1 nM

Q: What about the IC50 (MCF-7 cells; Homo sapiens) of the same compound?
A: 9 ± 4 nM

Q: And the IC50 (MCF10A cells; Homo sapiens, MCF-10A)?
A: 14 ± 4 nM

Q: And the maximum measured loading [6]?
A: ~11 mol %

Q: With `O=C1OCC2=C1C(c1cc(Br)cc(Br)c1)c1ccc3ccc(O)cc3c1N2` (centres unmarked) [N, 7-(3,5-Dibromophenyl)-2-hydroxy-7,11-dihydrobenzo[h]-furo[3,4-b]quinolin-8(10H)-one] as the compound, how does the IC50 (HeLa cells [1]; Homo sapiens) read?
A: 5 ± 1 nM

Q: What about the IC50 (MCF-7 cells; Homo sapiens) of the same compound?
A: 3 nM

Q: And the IC50 (MCF10A cells; Homo sapiens, MCF-10A)?
A: 5 nM

Q: What about the maximum measured loading [6] of the same compound?
A: ~1.1 mol %
